Data as given in US20220241249A1, “PHARMACEUTICAL COMPOSITION AND KIT CONTAINING NOVEL PENAM DERIVATIVE OR SALT THEREOF AND ONE OR MORE COMPOUNDS SELECTED FROM beta-LACTAMASE INHIBITORY COMPOUND AND ANTIBACTERIAL COMPOUND OR SALTS THEREOF” (priority 2019, published 2022).
In brackets after ≈: the same amount, converted by molar mass.

Legend:
Format in all cases: cell-based
[1] = system: OXA-48-containing Klebsiella pneumoniae strain (Y-1062); assay: Antibacterial activity evaluation test, MIC by broth microdilution (CLSI); conditions: Klebsiella pneumoniae
How it was run: (§1)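 MIC (μg/mL) = lowest drug concentration showing no visible bacterial growth after 16–20 h at 35° C. in cation-adjusted Mueller Hinton broth. Inoculum: agar-grown cells at 0.5 McFarland, diluted 10-fold.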

[2] = system: Pseudomonas aeruginosa strain ATCC27853; assay: as above; conditions: Pseudomonas aeruginosa, ATCC27853
How it was run: as §1

[3] = system: CTX-M-15-containing Escherichia coli strain (TK-1747); assay: as above; conditions: Escherichia coli
How it was run: as §1

[4] = system: VIM-2-containing Pseudomonas aeruginosa strain (S-3779); assay: as above; conditions: Pseudomonas aeruginosa
How it was run: as §1

[5] = system: KPC-2-containing Klebsiella pneumoniae strain (Y-995); assay: as above; conditions: Klebsiella pneumoniae
How it was run: as §1

[6] = system: NDM-1-containing Klebsiella pneumoniae strain (Y-1007); assay: as above; conditions: Klebsiella pneumoniae
How it was run: as §1

[7] = system: IMP-1-containing Pseudomonas aeruginosa strain (S-2838); assay: as above; conditions: Pseudomonas aeruginosa
How it was run: as §1

[8] = system: AmpC-derepressed Pseudomonas aeruginosa mutant strain (S-3028); assay: as above; conditions: Pseudomonas aeruginosa
How it was run: as §1

[9] = system: GES-19 and GES-20-containing Pseudomonas aeruginosa strain (S-3759); assay: as above; conditions: Pseudomonas aeruginosa
How it was run: as §1

[10] = system: Escherichia coli TK-3113 strain producing IMP-8 (strain D); assay: MIC of test compound alone or with β-lactamase inhibitor at 4 μg/mL; conditions: Escherichia coli
Protocol: By using a broth microdilution method, the combinational effect of a test compound and a β-lactamase inhibitor was evaluated.
The evaluation test for antibacterial activity was performed in the same manner as in Test Example 1.
Escherichia coli TK-3113 strain producing IMP-8 (hereinafter, called strain D),
An antibacterial activity evaluation test was performed in the same manner as in Test Example 6.
As the bacterial strain, the strains B, C, and D producing β-lactamase and a Klebsiella pneumoniae Y-1069 strain (hereinafter, called strain F) producing OXA-48 and CTX-M-15 were used.

CC(C)(O/N=C(\C(=O)NC1C(=O)N2C[C@@](C(=O)O)(N3CCN(NC(=O)C(=O)c4ccc(O)c(O)c4Cl)C(=O)C3=O)S[C@H]12)c1csc(N)n1)C(=O)O (stereo partly drawn) [Example 126, (3R,5R,6R)-6-((Z)-2-(2-aminothiazol-4-yl)-2-(((2-carboxypropan-2-yl)oxy)imino)aceta-mido)-3-(4-(2-(2-chloro-3,4-dihydroxy-phenyl)-2-oxoaceta-mido)-2,3-dioxopipera-zin-1-yl)-7-oxo-4-thia-1-azabicyclo[3.2.0]-heptane-3-carboxylic acid]
MIC [1]: 1 µg/mL (≈ 1.3 µM)
MIC [2]: 1 µg/mL (≈ 1.3 µM)
MIC [3]: < 0.06 µg/mL
MIC [4]: 1 µg/mL (≈ 1.3 µM)
MIC [5]: 0.12 µg/mL (≈ 0.156 µM)
MIC [6]: < 0.06 µg/mL
MIC [7]: 2 µg/mL (≈ 2.6 µM)
MIC [8]: 0.5 µg/mL (≈ 0.65 µM)
MIC [9]: 0.5 µg/mL (≈ 0.65 µM)
MIC ([10]; NAC added at 4 μg/mL): 0.03 µg/mL
MIC ([10]; VAB added at 4 μg/mL): 2 µg/mL
MIC ([10]; ZID added at 4 μg/mL): 0.03 µg/mL
MIC ([10]; test compound alone (β-lactamase inhibitor N/A)): 4 µg/mL
